Experiments:
Format in all cases: biochemical, mouse (129G1X)
[1] = target: monoclonal receptor (antibody) 27A6 (hybridoma 27A6, ATCC HB 10621), IgG induced by hapten Compound 5a; assay: Hydrolysis of benzoate ester Compound 3 catalyzed by monoclonal receptor 27A6 (HPLC assay, Michaelis-Menten kinetics)
Method: That monoclonal receptor is also referred to as receptor or antibody 27A6.
Purified monoclonal antibodies were dialyzed against EPPS buffer (I mM, pH 8.0, 100 mM NaCl) or CHES buffer (1 mM, pH 8.0, 100 mM NaCl). Its protein concentration was determined by the BCA method (Pierce). Assays were performed by HPLC (reverse-phase column, C18, VYDAC 201Tp54) with C3 CN/H2 O (0.1 percent TFA) on an isocratic program of 10/90. An internal standard of o-acetamidophenol was used to calculate the amount of product formed [4-(carboxybutyramido)phenol].
Reactions contained 5 percent cosolvent dioxane, and the temperature was maintained at 37°±0.1°degrees C. Initial linear rates were measured at<5 percent hydrolysis of the total substrate. […] Kinetic parameters Vmax Km were determined by nonlinear least-squares fitting of the initial rate vs. substrate concentration to a hyperbolic curve described by the Michaelis-Menten equation.

[2] = system: the three catalytic monoclonal antibodies obtained to hapten Compound 5a; assay: HPLC screen of hydrolysis of Compound 3 by catalytic antibodies, inhibition by free hapten; conditions: 50 μM inhibitor; antibody 20 μM, Compound 3 500 μM, phosphate 50 mM, pH 7.5, 100 mM NaCl, 37 degrees C
Method: Antibodies at a concentration of 20μM were initially screened (phosphate buffer, 50 mM, pH 7.5, 100 mM NaCl, 37° degrees C.) via an HPLC assay against benzoate ester Compound 3, (500 μM) for the production of 5-[(4-hydroxyphenyl)aming]-5-oxopentanoic acid, Compound 4.

[3] = system: monoclonal receptor (antibody) 27A6 (hybridoma 27A6, ATCC HB 10621), IgG induced by hapten Compound 5a; assay: Chemical modification of antibody 27A6, then assay of catalytic (esterolytic) activity by HPLC
Method: The esterolytic activity of monoclonal receptor 27A6 was unaffected by treatment with diethyl pyrocarbonate or maleic anhydride in fifty-fold molar excess to protein.
(a) Phenylglyoxal; a 50 μl aliquot of a phenylglyoxal solution (6 mM), (125 mM NaHCO3, pH 7.5) was added to buffer 195 μl (125 mM, pH 7.5 NaHCO3), containing antibody (20 μM). The mixture was vortexed and left to stand for one hour at room temperature. This reaction mixture was then transferred to a microdialyzer (Pierce) and dialyzed with 125 mM, pH 7.5 NaHCO3 with a flow through of approximately 150 ml/hour for two hours. The microdialyzer was then flushed with 4×60 ml portions of pH 8.4, 50 mM CHES, 100 mM NaCl and left to stand in this buffer overnight (about 15-18 hours). The microdialyzer was again flushed 3×50 ml portions of pH 8.4, 50 mM CHES, 100 mM NaCl the next morning. Samples were removed, protein concentrations recalculated (BCA) and assays run for catalytic activity (HPLC) or binding (ELISA). A similar procedure was used with hapten present (200 μM).
(b) Maleic anhydride; a […] aliquot of a maleic anhydride solution (0.06 M, dioxane) was added to 299 μl of 20 mM, pH 8.9 borate, 100 mM NaCl containing 20 μM of antibody. The solution was vortexed and left to stand at room temperature for one hour. This reaction mixture was then transferred to a microdialyzer and dialyzed as described above with 50 mM CHES, pH 8.4, 100 mM NaCl. Samples were removed, protein concentrations calculated (BCA), and assays run for catalytic activity or binding.
(c) Diethyl pyrocarbonate; 10 μl of a 0.6 M diethylpyrocarbonate solution in ethanol was diluted into 1 ml of sodium acetate (NaOAc) (150 mM, pH 6, 100 mM NaCl). Five microliters of that solution were added to 299 μl of NaOAc (150 mM, pH 6.0, 100 mM NaCl) containing 20 µM of antibody. The mixture was vortexed and left to stand at 4° degrees C. overnight (about 15-18 hours). This reaction mixture was then transferred to a microdialyzer and dialyzed as described above with CHES (50 mM, pH 8.4, 100 mM NaCl). Samples were removed, protein concentrations determined (BCA) and assays performed for catalytic activity and binding.

[4] = system: monoclonal antibody 30C6 (hybridoma 30C6, ATCC HB 10341), IgG induced by haptenic ligand Compound 1a; assay: Hydrolysis of benzoate ester Compound 3 catalyzed by monoclonal antibody 30C6 (HPLC assay, Michaelis-Menten kinetics)
Method: Monoclonal antibodies at a concentration of 20 μM were initially screened (phosphate buffer 50 mM, pH 7.5, 100 mM NaCl, 37° degrees C.) against benzoate ester reactant ligand Compound 3, ([…]) for the production of 5-[[4-(hydroxy)phenyl]aming]-5-oxo-pentanoic acid, Compound 4. [Analysis was performed via HPLC on an RP-C18 column eluting with water: acetonitrile (op:10) at a flow of 1 ml/min with UV detector set to 254 nm. The hydrolysis product, Compound 4 (FIG. 1; retention time 7 minutes) was collected (recovered) an found to be identical by RP-HPLC coinjection and mass spectral analysis with an authentic sample.]
The pH dependence of the hydrolysis of substrate Compound 3 was examined in the presence of monoclonal antibodies 30C6 (20 μM) between pH 6.0 and 7.2 (Bis-tris) and 7.2-8.0 (phosphate), both at 50 mM buffer and 100 mM NaCl, 37° degrees C. (FIG. 2).

[5] = treatment with reagent in fifty-fold molar excess to protein
[6] = hydrolysis of Compound 3, 50 mM phosphate, 100 mM NaCl, pH 7.2, 37 degrees C, antibody 20 μM

For `Nc1ccc(CC(O)c2ccccc2C(=O)O)cc1` (stereo not shown) [Compound 5b], the Ki ([1]; competitive inhibitor, substrate Compound 3, read-out: K (competitive inhibition of the antibody-catalyzed hydrolysis of Compound 3)) was 6 ± 2 µM and the inhibition of catalysis [2] was “completely inhibited”.
In the case of `O=C1C=CC(=O)O1` [maleic anhydride], the “esterolytic activity after treatment” value [3, 5] is reported as “unaffected”.
`O=CC(=O)c1ccccc1` [phenylglyoxal] was tested, and the “loss of catalytic activity in the presence of inhibitor Compound 5b” value ([3]; reagent in fifty-fold molar excess, Compound 5b five-fold molar excess to protein) was 35% and the “loss of catalytic activity” value [3, 5] was 75%.
With `O=C(O)CCCC(=O)Nc1ccc(OC(=O)c2ccccc2)cc1` [Compound 3] the “Kcat^app” value [4, 6] was 5±0.2×10^-3 min^-1, the Km [4, 6] was 1120 ± 50 µM and the “ratio of kcat/ko (rate acceleration by the antibody over hydrolysis in water)” value ([4]; pH independent antibody-catalyzed rate vs hydrolysis of Compound 3 in water) was “over a million fold”. The “Kcat^app” value ([1]; hydrolysis of Compound 3, 50 mM EPPS, 100 mM NaCl, pH 8.5, 37 degrees C) was 0.00017 ± 3.3e-05 s⁻¹.
For `CCOC(=O)OC(=O)OCC` [diethyl pyrocarbonate], the “esterolytic activity after treatment” value [3, 5] was “unaffected”.
